# Tests used:
# human HPK1 [1] = target: T1, human HPK1 (Homo sapiens (Human), UniProt Q92918); assay: 33P isotope-labeled kinase activity assay (Method 1); assay type: biochemical; conditions: HPK1 enzyme concentration 8.1 nM; ATP concentration 15 μM
# Method: Method 1: The IC50 value was assayed by ^33P isotope-labeled kinase activity assay to evaluate the inhibitory ability of a test compound on human HPK1.
# (§1) Enzyme buffer conditions: 50 mM Hepes (pH 7.5), 10 mM MgCl2, 1 mM EGTA, 0.01% Brij35, 2 mM DTT.
# (§2) Assay steps: A compound was diluted 3-fold with DMSO in a dilution plate, with a final initial concentration of […] and 10 concentration gradient points. The compound was diluted 50-fold into the kinase reaction buffer, and the mixture was shaken on a shaker for 20 minutes. The kinase was prepared with the enzyme reaction buffer. 2 μL of kinase was added to each well of a reaction plate. 1 μL of the diluted compound in the buffer was added to each well. The plate was sealed with a sealing film, centrifuged at 1000 g for 30 seconds, and placed at room temperature for 10 minutes. The mixed solution of ATP/MBP was prepared with the enzyme reaction buffer. 2 μL of the mixed solution of ATP/MBP was added to the reaction plate. The plate was sealed with a sealing film, and centrifuged at 1000 g for 30 seconds. The mixture in the plate was reacted at room temperature for 60 minutes. […] The plate was incubated at 25° C. for 40 min. […] The plate was incubated at 25° C. for 40 min. The RLU (relative luminescence unit) signal was read with a BMG microplate reader, and the signal intensity was used to characterize the activity of the kinase.
# human GLK = human GLK (Homo sapiens (Human), UniProt Q8IVH8); assay: Kinase activity assay using ADP-Glo method, GLK; assay type: biochemical; conditions: GLK enzyme concentration 8 nM; ATP 20 μM
# human GLK, sequence (Q8IVH8 whole entry): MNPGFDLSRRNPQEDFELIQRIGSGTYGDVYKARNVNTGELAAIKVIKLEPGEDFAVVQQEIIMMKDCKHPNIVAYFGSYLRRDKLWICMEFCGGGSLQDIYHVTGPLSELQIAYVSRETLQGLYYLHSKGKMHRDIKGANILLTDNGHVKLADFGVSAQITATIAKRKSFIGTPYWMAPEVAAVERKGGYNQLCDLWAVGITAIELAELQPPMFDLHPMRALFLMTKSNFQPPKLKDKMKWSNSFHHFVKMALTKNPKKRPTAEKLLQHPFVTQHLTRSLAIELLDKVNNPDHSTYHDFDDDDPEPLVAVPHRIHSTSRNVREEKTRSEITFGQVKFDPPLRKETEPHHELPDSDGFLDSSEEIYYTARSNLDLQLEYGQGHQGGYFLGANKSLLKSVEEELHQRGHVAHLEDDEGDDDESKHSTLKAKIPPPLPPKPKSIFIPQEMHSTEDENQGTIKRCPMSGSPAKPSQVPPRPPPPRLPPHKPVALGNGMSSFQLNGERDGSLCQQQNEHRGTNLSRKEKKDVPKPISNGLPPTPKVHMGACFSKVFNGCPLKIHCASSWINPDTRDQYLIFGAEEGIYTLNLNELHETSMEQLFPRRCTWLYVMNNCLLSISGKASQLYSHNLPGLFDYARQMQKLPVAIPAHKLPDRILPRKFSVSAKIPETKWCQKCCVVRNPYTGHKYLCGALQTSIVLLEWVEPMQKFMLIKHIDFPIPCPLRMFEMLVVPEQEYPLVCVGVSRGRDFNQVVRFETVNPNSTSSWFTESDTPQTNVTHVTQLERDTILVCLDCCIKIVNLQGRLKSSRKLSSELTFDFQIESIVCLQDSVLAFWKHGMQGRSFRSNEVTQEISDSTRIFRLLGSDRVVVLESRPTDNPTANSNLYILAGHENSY
# Method: The IC50 value was assayed by the kinase activity assay using ADP-Glo method to evaluate the inhibitory ability of a test compound on human GLK.
# as §1
# Preparation of the mixture of kinase and substrate: the concentration of GLK in the reaction solution was 8 nM, the concentration of ATP was […], and the concentration of MBP was 0.05 mg/mL.
# Assay steps: A compound was diluted 4-fold with DMSO in a dilution plate, with a final initial concentration of […] and 10 concentration gradient points. The compound was diluted 50-fold into the kinase reaction buffer, and the mixture was shaken on a shaker for 20 minutes. The kinase was prepared with the enzyme reaction buffer. 2 μL of kinase was added to each well of a reaction plate. 1 μL of the diluted compound in the buffer was added to each well. The plate was sealed with a sealing film, centrifuged at 1000 g for 30 seconds, and placed at room temperature for 10 minutes. The mixed solution of ATP/MBP was prepared with the enzyme reaction buffer. 2 μL of the mixed solution of ATP/MBP was added to the reaction plate. The plate was sealed with a sealing film, and centrifuged at 1000 g for 30 seconds. The mixture in the plate was reacted at room temperature for 60 minutes. 4 μL of ADP-Glo was transferred to the 384 reaction plate, and centrifuged at 1000 rpm/min for 1 min. The plate was incubated at 25° C. for 40 min. 8 μL of detection solution was transferred to the 384 reaction plate, and centrifuged at 1000 rpm/min for 1 min. The plate was incubated at 25° C. for 40 min. The RLU (relative luminescence unit) signal was read with a BMG microplate reader, and the signal intensity was used to characterize the activity of the kinase.
# (§3) The kinase activity data were expressed as the comparison of the kinase activity of a group with a test compound and the kinase activity of the blank group (containing only DMSO). The IC50 value was obtained by curve fitting using Prism software (GraphPad7.0).
# human HPK1 [2] = target: T1, human HPK1; assay: Kinase activity assay using ADP-Glo method (Method 2); assay type: biochemical; conditions: HPK1 enzyme concentration 0.1 nM; ATP concentration 10 μM
# Method: Method 2: The IC50 value was assayed by the kinase activity assay using ADP-Glo method to evaluate the inhibitory ability of a test compound on human HPK1.
# Enzyme buffer conditions: 50 mM Hepes (pH 7.5), 10 mM MgCl2, 1 mM EGTA, 0.01% Brij35, 2 mM DTT. […]
# as §2, with “4-fold” for “3-fold”
# as §3
# [3] = In vitro metabolic stability in human liver microsomes; assay type: in vitro ADME; conditions: 1 μM compound, 0.5 mg/mL protein
# Method: The in vitro metabolic stability of the compounds of the present disclosure in human was investigated by the metabolic stability in human liver microsomes.
# Assay conditions: 1 μM of a compound was incubated with human liver microsomes supplemented with NADPH regeneration system at 37° C. for a certain period of time up to 60 minutes. The concentration of the compound in the resulting sample was assayed by LC-MS/MS method.
# Assay procedure: 96-well incubation plates were named T0, T5, T15, T30, T45, T60, Blank60 and NCF60, respectively. The reaction time corresponding to the incubation plates were 0, 5, 15, 30, 45 and 60 minutes, respectively. No test sample or control compound was added to the Blank60 plate, and samples were taken after 60 minutes of incubation. Potassium phosphate buffer was used instead of NADPH regeneration system solution in the NCF60 plate, and the plate was incubated for 60 minutes. All the samples of the time points were from a single well.
# 5 μL of a test sample or control sample working solution and 100 μL of microsome working solution (the concentration of liver microsome protein was 0.5 mg/mL) were added to the T0, T5, T15, T30, T45, T60 and NCF60 plates, respectively. Only microsome working solution was added to the Blank60 plate. Then, the Blank60, T5, T15, T30, T45 and T60 plates, except TO and NCF60 plates, were placed in a 37° C. water bath, and preincubated for about 10 minutes.
# 180 μL of stop solution (the stop solution was a solution of tolbutamide (100 ng/mL) in acetonitrile and methanol (95:5, V/V)) was firstly added to the sample of TO plate, and then the NADPH regeneration system working solution was added.
# 50 μL of potassium phosphate buffer was added to each well of the NCF60 plate, and the plate was incubated for 60 minutes.
# After the pre-incubation of Blank60, T5, T15, T30, T45 and T60 plates, 44 μL of NADPH regeneration system working solution was added to each sample well to initiate the reaction. Therefore, for the sample wells containing a test sample or control sample working solution, the final concentration of the reaction was […], the concentration of liver microsomes was 0.5 mg/mL, and the final concentrations of DMSO and acetonitrile in the reaction system were 0.01% (v/v) and 0.99% (v/v), respectively.
# After being incubated for an appropriate time (e.g., 5, 15, 30, 45, and 60 min), 180 μL of stop solution was added to each well of the test sample and control sample of Blank60, T5, T15, T30, T45, T60, and NCF60 plates, respectively, to terminate the reaction.
# All sample plates were shaken and centrifuged for 10 min. 80 μL of the supernatant of a test sample was taken and diluted into 240 μL of a mixture of acetonitrile and water (1:9, V/V) containing 0.1% formic acid for LC-MS/MS analysis.
# By calculating the corresponding time point and the remaining percentage of a compound, the half-life T1/2 and clearance rate CLint(liver) of the compound in human liver microsome metabolism were obtained.
# [4] = Pharmacokinetic evaluation in mice; assay type: in vivo, female Balb/c mice
# Method: Assay procedure: 10% DMSO+20% PEG400+70% (30% SBE-P3-CD aqueous solution) (the trifluoroacetate of compound 4, the trifluoroacetate of compound 9) or 10% SBE-β-CD aqueous solution (the trifluoroacetate of compound 24-3) was injected into female Balb/c mice (overnight fasting, 7-9 weeks old) via the tail vein. Female Balb/c mice (overnight fasting, 7-9 weeks old) were gavaged with 10% DMSO+20% PEG400+70% (30% SBE-β-CD aqueous solution (the trifluoroacetate of compound 4, the trifluoroacetate of compound 9) or 10% SBE-P3-CD aqueous solution (the trifluoroacetate of compound 24-3) at dosages shown in Table 7. About 30 μL of blood of the two groups of animals was collected from the jugular vein at 0.0833, 0.25, 0.5, 1.0, 2.0, 4.0, 8.0, and 24 hours after the administration, and from the tail vein at 0.25, 0.5, 1.0, 2.0, 4.0, 8.0, and 24 hours after the administration, respectively, and placed in an anticoagulant tube with EDTA-K2 added. The tube was centrifuged to separate the plasma. The plasma concentration was assayed by LC-MS/MS. The relevant pharmacokinetic parameters were calculated with WinNonlin™ Version 6.3 (Pharsight, Mountain View, CA) pharmacokinetic software using the non-compartmental linear logarithmic trapezoidal method.
# MDR1 (P-glycoprotein) = assay: Permeability evaluation in MDR1-MDCK II cells; assay type: in vitro ADME; conditions: dog
# Method: Cell line: The MDR1-MDCK II cell line authorized by Piet Borst's laboratory at the Netherlands Cancer Research Institute was used in this assay as an in vitro model for the permeability evaluation assay. The cells were inoculated in a Transwell-96 well cell plate at a density of 2.3×10^5 cells/cm^2, and cultured in a carbon dioxide incubator for 4-7 days before use in the transport assay.
# The administration concentration of the test sample was 2.00 μM.
# Test direction and number of parallel samples: bidirectional A-B and B-A, 2 parallels
# Transport buffer (TB): HBSS solution containing 10 mM HEPES (pH 7.40±0.05)
# Incubation conditions: 37±1° C., 5% CO2, incubated for 150 minutes
# Control compounds: Nadolol and metoprolol were used as low-permeability and high-permeability control compounds. Digoxin was used as a substrate of P-glycoprotein. The administration concentration of nadolol and metoprolol was 2.00 μM, and the administration concentration of digoxin was 10.0 μM.
# After the transport assay, the integrity of the MDR1-MDCK II cell layer was assayed by the Lucifer Yellow Rejection Assay. The remaining solution in the apical and basolateral wells was removed. 75 μL of TB containing 100 μM Lucifer Yellow was added to the apical well, and 250 μL of TB was added to the basolateral well. The cell plate was incubated in a cell culture incubator at 37±1° C., 5% CO2 and saturated humidity for 30 minutes. Then, 20 μL of sample was taken from the apical well and mixed with 60 μL of TB, and 80 μL of sample was taken from the basolateral well. The relative fluorescence unit (RFU) was measured at 425/528 nm (excitation/emission) using a microplate reader.
# In this assay, the sample analysis of the test samples and control compounds of nadolol, metoprolol, and digoxin was performed by liquid chromatography-tandem mass spectrometry (LC-MS/MS). The retention time of the analytes and internal standards, chromatogram acquisition, and chromatogram integration were processed using the software Analyst (Sciex, Framingham, MA, USA). The sample analysis was semi-quantitatively determined using the peak area of analyte and the peak area of internal standard.
# VR is the volume of the receiver end solution (0.075 mL for side A, and 0.25 mL for side B); Area is the relative surface area of the cell monolayer (0.0804 cm2); Time is the incubation time (9000 s); C0 is the peak area ratio of the compound at the administration end; VD is the volume of the administration end (0.075 mL for side A, and 0.25 mL for side B); CD and CR are the peak area ratios of the compound at the administration end and the receiver end, respectively.
# [5] = female, Balb/c, mouse, plasma, IV 2 mg/kg
# [6] = female, Balb/c, mouse, plasma, PO 75 mg/kg
# T1 sequence (Q92918 whole entry): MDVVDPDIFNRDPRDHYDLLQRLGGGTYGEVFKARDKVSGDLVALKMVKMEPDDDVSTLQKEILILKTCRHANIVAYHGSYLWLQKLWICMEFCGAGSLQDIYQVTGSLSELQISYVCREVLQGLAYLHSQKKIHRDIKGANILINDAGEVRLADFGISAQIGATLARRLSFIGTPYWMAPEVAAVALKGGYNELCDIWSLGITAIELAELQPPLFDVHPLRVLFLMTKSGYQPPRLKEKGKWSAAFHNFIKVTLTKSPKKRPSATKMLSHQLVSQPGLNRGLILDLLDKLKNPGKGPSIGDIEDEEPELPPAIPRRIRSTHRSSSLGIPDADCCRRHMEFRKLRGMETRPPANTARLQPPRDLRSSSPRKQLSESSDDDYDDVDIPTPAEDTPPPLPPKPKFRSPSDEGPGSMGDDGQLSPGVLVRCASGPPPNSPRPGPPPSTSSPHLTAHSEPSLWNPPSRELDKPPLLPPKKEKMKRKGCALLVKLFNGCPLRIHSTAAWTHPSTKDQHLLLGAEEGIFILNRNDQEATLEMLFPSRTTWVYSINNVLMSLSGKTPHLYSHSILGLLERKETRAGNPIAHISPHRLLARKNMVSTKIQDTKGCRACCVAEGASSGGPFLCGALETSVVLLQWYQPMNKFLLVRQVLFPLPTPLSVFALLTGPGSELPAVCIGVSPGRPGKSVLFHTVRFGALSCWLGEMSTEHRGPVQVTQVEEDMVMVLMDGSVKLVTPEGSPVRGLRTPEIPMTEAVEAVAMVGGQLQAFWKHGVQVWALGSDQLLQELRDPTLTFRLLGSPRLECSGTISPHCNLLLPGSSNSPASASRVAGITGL
smiles,measurement,setting,value
CN(C)Cc1cc(Nc2ncc(-c3cnc4cc(F)ccn34)c3c2C(=O)NC3)ccc1N1CCOCC1 [Compound 2],IC50,human HPK1 [1],18 nM
O=C1NCc2c(-c3cnc4cc(F)ccn34)ccc(Nc3ccc4c(n3)OC[C@H]3COCCN43)c21 [Compound 9],IC50,human GLK,115 nM
same,IC50,human HPK1 [2],0.7 nM
same,CLint scaled at 1 μM,[3],39 mL/min/kg
same,half-life at 1 μM,[3],32 min
O=C1NCc2c(-c3cnc4cc(F)ccn34)ccc(Nc3ccc4c(n3)OC[C@H]3COCCN43)c21 [Trifluoroacetate of compound 9],Tlast,[4]; IV 2 mg/kg,2 h
same,Tlast,[4]; PO 75 mg/kg,8 h
same,AUC(0-inf),[4]; [5],1.95 µM·h
same,AUC(0-t),[4]; [5],1.93 µM·h
same,C0,[4]; [5],6.06 µM
same,clearance,[4]; [5],36 mL/min/kg
same,half-life,[4]; [5],18 min
same,Vd,"[4]; female, Balb/c, mouse, plasma, IV 2 mg/kg, read-out: Vdss",0.8 L/kg
same,AUC(0-inf),[4]; [6],108 µM·h
same,AUC(0-t),[4]; [6],108 µM·h
same,Cmax,[4]; [6],39.8 µM
same,Tmax,[4]; [6],48 min
same,half-life,[4]; [6],48 min
same,bioavailability,"[4]; female, Balb/c, mouse, plasma, PO 75 mg/kg vs IV 2 mg/kg, calculated using AUC0-last",148%
CN1Cc2nc(Nc3ccc(-c4cnc5cc(F)ccn45)c4c3C(=O)NC4)ccc2N2CCOCC2C1 (stereo not drawn) [Trifluoroacetate of compound 16],IC50,human GLK,277 nM
Cn1ccc2c(-c3ncc(Nc4ccc5c(n4)OC[C@H]4COCCN54)c4c3CNC4=O)ccnc21 [Trifluoroacetate of compound 20],IC50,human GLK,198 nM
same,CLint scaled at 1 μM,[3],63 mL/min/kg
same,half-life at 1 μM,[3],20 min
same,"Papp A→B at 150 min, 2 μM","MDR1 (P-glycoprotein); pH 7.4, 2.00 μM, 150 minutes",4.61 ×10⁻⁶ cm/s
same,"Papp B→A at 150 min, 2 μM","MDR1 (P-glycoprotein); pH 7.4, 2.00 μM, 150 minutes",22.5 ×10⁻⁶ cm/s
same,"efflux ratio at 150 min, 2 μM","MDR1 (P-glycoprotein); pH 7.4, 2.00 μM, 150 minutes",4.88
same,"Papp at 150 min, 2 μM","MDR1 (P-glycoprotein); pH 7.4, class by Papp, read-out: Conclusion of the permeability",1 to 5.5 ×10⁻⁶ cm/s

# Reference: US20250282798A1, “HETEROARYL-SUBSTITUTED BICYCLIC COMPOUND AND USE THEREOF” (Medshine Discovery Inc., priority 2022, published 2025)
